From patent publication US20240208953A1, “"Cyclopenta[c]pyrrol Negative Allosteric Modulators of NR2B"” (Novartis AG, priority 2021, published 2024)

Columns and labels:
[1] = biological target: P-glycoprotein (P-gp) (Homo sapiens (Human), UniProt P08183); experiment: MDCK-MDR1 permeability / efflux assay; format: in vitro ADME; details: for efflux ratio at 120 min, 10 μM: dog, MDCK-MDR1, pH 7.4, efflux ratio, read-out: MDCK-MDR1 ER; for MDCK-MDR1 ER: efflux ratio, 10 μM, 120 min
Outline: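 MDCK-MDR1 monolayers grown 4 days on Transwells; 10 μM compound in HBSS/10 mM HEPES pH 7.4 with 0.02% BSA, run A→B and B→A for 120 min at 37 °C without shaking. Donor and receiver concentrations by LC-MS/MS; Papp and recovery calculated, efflux ratio from B→A vs A→B.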

[2] = biological target: hERG (Homo sapiens (Human), UniProt Q12809); experiment: hERG Qpatch assay; format: cell-based
Chain of hERG (Q12809 whole entry): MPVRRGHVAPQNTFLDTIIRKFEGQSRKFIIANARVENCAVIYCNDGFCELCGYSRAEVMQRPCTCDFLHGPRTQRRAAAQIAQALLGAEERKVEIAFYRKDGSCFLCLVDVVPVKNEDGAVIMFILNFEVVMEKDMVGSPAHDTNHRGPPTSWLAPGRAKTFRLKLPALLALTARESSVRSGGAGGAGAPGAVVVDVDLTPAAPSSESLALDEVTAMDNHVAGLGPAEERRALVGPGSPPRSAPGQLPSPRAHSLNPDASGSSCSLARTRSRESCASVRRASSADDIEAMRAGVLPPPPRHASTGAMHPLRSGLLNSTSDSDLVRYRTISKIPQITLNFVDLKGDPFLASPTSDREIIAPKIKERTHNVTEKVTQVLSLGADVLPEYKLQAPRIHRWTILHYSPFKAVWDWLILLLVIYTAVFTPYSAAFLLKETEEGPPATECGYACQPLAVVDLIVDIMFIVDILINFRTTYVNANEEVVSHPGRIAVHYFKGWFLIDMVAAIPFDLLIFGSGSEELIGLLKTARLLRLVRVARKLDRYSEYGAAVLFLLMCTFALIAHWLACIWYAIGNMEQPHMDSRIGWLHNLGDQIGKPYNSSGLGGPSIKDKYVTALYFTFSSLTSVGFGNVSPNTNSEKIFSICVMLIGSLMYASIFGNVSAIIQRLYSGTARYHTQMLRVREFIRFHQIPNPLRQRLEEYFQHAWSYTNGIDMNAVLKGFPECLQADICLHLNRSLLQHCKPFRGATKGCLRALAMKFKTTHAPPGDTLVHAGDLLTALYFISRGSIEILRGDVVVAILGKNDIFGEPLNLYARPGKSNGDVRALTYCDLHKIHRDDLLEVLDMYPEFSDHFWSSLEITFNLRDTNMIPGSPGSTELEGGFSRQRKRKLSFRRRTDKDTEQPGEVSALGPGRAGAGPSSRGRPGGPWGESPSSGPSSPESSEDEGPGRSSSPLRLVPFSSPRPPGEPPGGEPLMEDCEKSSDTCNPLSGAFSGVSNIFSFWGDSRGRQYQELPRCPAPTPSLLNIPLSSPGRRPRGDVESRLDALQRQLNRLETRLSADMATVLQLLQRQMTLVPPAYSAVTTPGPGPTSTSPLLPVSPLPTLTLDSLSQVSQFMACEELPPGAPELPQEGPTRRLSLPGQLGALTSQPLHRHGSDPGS
Experimental: Example 3. hERG Qpatch Assay Protocol
This assay was performed by the method described in Skepper et al., J. Med. Chem. 2020, 63, 7773-7816:
hERG expressing cell lines were produced in-house at Novartis using CHO-K1 T-Rex inducible plasmid system (Invitrogen) as described previously (Cao et al., Assay Drug Dev. Technol. 2010, 8, 766-780). Cell lines were maintained in Ham's F12 nutrient mixture containing 10% FBS, blasticidin ([…]; InvivoGen), hygromycin B ([…]; InvivoGen), Zeocin ([…], Invitrogen), and neomycin ([…], Invitrogen) using SelecT automated cell culture system (TAP Biosystems, Cambridge, U.K.). hERG and hCav1.2 channels expression was induced with tetracycline (0.25-1 μg/mL, Invitrogen) at least 24 h prior to the experiment.
hERG currents were recorded using the Qpatch automated patch clamp systems (Sophion Bioscience Inc., North Brunswick, NJ) in the whole (single) cell configuration. hERG expressing CHO-K1 cells were harvested with Detachin (Genlantis) and stored in the modified serum-free SFM-2 media (Life Technologies) at room temperature. The extracellular solution contained (in mM) NaCl (145), KCl (4), MgCl2 (1), CaCl2 (2), and HEPES (10), pH 7.4, with NaOH. The intracellular solution contained KCl (135), MgCl2 (1.75), CaCl2 (5.4), EGTA (10), K2-ATP (4), and HEPES (10), pH 7.2, with KOH. After whole cell configuration was achieved, the cell was held at −90 mV, and a 0.1 s pulse to −50 mV was delivered to measure the leaking current, which was subtracted from the tail current online. Then the cell was depolarized to +20 mV for 4 s (prepulse), followed by a 4 s test pulse to −50 mV to reveal the hERG tail current. To monitor changes in the current amplitude, this voltage protocol was repeatedly applied every 20 s. Test compounds were first diluted in DMSO for six dose-response experiments and then dissolved in the extracellular solution using Freedom EVO liquid handling robotic system (Tecan, Männedorf, Switzerland). The final DMSO concentration in samples was 0.3% v/v. Amitriptyline (Sigma) was tested as a positive control. Data were analyzed using in-house developed MatLab-based program (MathWorks, Natick, MA

[3] = biological target: NR2B (Rattus norvegicus (Rat), UniProt Q00960); experiment: NR2B rat cortical neuron calcium influx assay; format: cell-based; details: for IC50: rat cortical neurons, glutamate and glycine stimulated calcium influx; for relative potency in the NR2B rat cortical neuron calcium influx assay: comparison within Examples 5A/5B/5C/5D
Chain of NR2B (Q00960 27-1482, other chains not shown): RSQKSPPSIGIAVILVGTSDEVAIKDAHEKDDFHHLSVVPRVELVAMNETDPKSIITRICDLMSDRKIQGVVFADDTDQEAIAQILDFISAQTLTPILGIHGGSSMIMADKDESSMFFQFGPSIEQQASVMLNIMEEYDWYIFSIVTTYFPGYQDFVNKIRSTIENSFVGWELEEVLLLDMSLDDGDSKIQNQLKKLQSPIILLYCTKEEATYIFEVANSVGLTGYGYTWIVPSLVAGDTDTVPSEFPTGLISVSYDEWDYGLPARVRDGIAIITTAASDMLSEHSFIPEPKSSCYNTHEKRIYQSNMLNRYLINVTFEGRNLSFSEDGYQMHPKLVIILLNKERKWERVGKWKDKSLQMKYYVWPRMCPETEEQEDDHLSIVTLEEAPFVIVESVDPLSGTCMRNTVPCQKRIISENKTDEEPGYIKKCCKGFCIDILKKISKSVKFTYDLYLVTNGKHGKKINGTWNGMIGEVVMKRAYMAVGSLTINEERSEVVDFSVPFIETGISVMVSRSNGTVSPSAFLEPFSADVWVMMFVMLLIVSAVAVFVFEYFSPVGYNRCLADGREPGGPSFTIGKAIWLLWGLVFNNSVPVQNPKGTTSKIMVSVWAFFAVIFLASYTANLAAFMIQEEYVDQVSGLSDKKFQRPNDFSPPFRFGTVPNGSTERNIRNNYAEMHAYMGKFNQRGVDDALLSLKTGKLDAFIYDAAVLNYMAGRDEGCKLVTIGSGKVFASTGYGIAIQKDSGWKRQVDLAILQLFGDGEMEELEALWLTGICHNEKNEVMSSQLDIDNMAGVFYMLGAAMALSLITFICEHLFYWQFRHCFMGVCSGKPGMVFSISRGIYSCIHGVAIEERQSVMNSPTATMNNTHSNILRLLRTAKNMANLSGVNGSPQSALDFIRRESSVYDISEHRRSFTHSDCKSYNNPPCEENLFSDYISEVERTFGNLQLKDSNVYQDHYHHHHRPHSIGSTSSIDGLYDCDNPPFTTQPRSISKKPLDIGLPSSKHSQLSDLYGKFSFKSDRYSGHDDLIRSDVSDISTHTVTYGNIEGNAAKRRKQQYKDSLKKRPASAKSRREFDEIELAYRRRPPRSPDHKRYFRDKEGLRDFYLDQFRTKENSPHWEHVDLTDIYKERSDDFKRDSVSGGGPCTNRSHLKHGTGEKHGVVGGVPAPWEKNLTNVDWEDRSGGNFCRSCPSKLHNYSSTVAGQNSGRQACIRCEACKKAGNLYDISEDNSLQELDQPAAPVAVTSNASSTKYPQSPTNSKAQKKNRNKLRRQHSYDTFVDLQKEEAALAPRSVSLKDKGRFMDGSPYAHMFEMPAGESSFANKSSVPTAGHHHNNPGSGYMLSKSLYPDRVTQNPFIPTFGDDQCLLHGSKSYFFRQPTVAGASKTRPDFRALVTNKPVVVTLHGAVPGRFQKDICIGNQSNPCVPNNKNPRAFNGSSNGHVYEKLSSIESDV
Outline: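 Primary cortical neurons from E18 Sprague Dawley rat embryos, cultured 2 days, were loaded with Calcium 6 dye in 1.8 mM Ca-HBSS and preincubated with compound 2 h at 37° C. Glutamate plus glycine was added and fluorescence read for 2 min as peak/baseline ratio; duplicate dose-response curves gave IC50 (μM) and maximal inhibition.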

[4] = Table 2, hERG expressing CHO-K1 cells

Chain of P-glycoprotein (P-gp) (P08183 whole entry): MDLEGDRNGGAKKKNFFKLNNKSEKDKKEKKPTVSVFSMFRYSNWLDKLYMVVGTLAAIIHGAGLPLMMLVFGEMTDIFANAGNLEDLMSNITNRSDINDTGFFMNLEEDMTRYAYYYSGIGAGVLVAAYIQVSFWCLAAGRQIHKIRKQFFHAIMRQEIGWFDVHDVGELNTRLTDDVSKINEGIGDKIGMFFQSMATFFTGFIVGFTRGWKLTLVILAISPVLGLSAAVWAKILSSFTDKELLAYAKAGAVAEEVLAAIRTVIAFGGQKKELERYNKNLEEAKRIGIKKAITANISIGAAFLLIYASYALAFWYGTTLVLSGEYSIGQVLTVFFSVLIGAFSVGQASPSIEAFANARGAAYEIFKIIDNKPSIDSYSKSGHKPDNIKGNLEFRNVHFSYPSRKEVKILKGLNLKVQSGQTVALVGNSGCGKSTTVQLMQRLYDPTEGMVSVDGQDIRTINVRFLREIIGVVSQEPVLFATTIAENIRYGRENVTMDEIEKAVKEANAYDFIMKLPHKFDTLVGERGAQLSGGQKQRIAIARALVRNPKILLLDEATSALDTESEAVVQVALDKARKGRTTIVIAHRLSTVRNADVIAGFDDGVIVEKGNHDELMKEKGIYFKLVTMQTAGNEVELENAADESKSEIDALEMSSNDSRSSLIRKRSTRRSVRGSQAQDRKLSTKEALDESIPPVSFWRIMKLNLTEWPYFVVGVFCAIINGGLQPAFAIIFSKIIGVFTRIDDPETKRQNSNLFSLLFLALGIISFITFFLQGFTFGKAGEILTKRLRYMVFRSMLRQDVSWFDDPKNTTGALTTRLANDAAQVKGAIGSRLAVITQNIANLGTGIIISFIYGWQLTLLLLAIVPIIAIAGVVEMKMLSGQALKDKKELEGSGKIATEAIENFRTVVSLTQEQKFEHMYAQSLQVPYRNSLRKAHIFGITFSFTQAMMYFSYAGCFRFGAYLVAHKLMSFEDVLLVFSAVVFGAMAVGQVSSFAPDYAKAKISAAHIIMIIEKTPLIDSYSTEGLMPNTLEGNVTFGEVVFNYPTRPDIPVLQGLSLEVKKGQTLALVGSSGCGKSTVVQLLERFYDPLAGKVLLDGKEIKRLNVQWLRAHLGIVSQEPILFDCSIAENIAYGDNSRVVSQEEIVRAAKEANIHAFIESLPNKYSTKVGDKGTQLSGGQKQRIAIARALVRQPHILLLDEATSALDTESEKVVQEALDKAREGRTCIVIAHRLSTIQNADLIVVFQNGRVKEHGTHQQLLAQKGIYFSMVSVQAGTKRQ

efflux ratio at 120 min, 10 μM [1] | IC50 [3] [nM] | relative potency in the NR2B rat cortical neuron calcium influx assay [3] | Structure (SMILES) | IC50 [2, 4] [nM] | IC50 ([2]; Table 3, matched pairs) [nM] | MDCK-MDR1 ER [1]
0.9 | 0.04 | – | O=c1[nH]c2c(F)cc([C@H](O)CN3C[C@H]4C[C@H](Oc5ccccc5)C[C@@]4(O)C3)cc2s1 (single isomer, unassigned) [Example 42B] | 800 | – | –
– | 4.8 | – | O=C1CCc2cc([C@H](O)CN3C[C@H]4C[C@H](Oc5ccccc5)C[C@@]4(O)C3)cc(F)c2N1 (single isomer, unassigned) [Example 31B] | 3900 | – | –
2.06 | 0.18 | – | O=C1Nc2ccc([C@H](O)CN3C[C@H]4C[C@H](Oc5ccccc5)C[C@@]4(O)C3)cc2CS1 (single isomer, unassigned) [Example 14B] | 1300 | – | –
3.68 | 0.8 | – | O=c1ccc2cc([C@@H](O)CN3C[C@H]4C[C@H](Oc5ccccc5)C[C@@]4(O)C3)ccc2[nH]1 (single isomer, unassigned) [Example 8A] | 2800 | – | –
3.02 | 0.6 | – | O=C1CCc2cc([C@@H](O)CN3C[C@H]4C[C@H](Oc5ccccc5)C[C@@]4(O)C3)ccc2N1 [Example 1A, 6-((R)-1-hydroxy-2-((3aS,5S,6aR)-3a-hydroxy-5-phenoxyhexahydrocyclopenta[c]pyrrol-2(1H)-yl)ethyl)-3,4-dihydroquinolin-2(1H)-one] | 10700 | – | –
1.63 | 10 | – | O=C1CCc2cc([C@@H](O)CN3C[C@H]4C[C@H](Oc5ccccc5)C[C@@]4(O)C3)cc(F)c2N1 (single isomer, unassigned) [Example 31A] | 7300 | – | –
4.24 | 11 | – | O=C1CCc2cc([C@H](O)CN3C[C@H]4C[C@H](Oc5ccccc5F)[C@H](O)[C@@]4(O)C3)cc(F)c2N1 (single isomer, unassigned) [Example 29B] | 12500 | – | –
1.46 | 0.021 | – | O=C1CCc2cc([C@@H](O)CN3C[C@@H]4C[C@@H](Oc5cccc(F)c5F)C[C@]4(O)C3)ccc2N1 (single isomer, unassigned) [Example 24C] | 1200 | – | –
0.66 | 0.051 | – | O=C1Nc2c(F)cc([C@@H](O)CN3C[C@H]4C[C@H](Oc5ccccc5)C[C@@]4(O)C3)cc2CS1 (single isomer, unassigned) [Example 16A] | 400 | – | –
2.07 | 0.59 | more potent than Examples 5A and 5B | O=C1CCc2cc(C(O)CN3CC4CC(Oc5ccccc5F)CC4(O)C3)ccc2N1 (stereo in doubt) [Example 5C, 6-((R)-2-((3aR,5R,6aS)-5-(2-fluorophenoxy)-3a-hydroxyhexahydrocyclopenta[c]pyrrol-2(1H)-yl)-1-hydroxyethyl)-3,4-dihydroquinolin-2(1H)-one] | 6000 | 6000 | –
2.07 | 1.9 | – | O=C1CCCc2cc([C@H](O)CN3C[C@H]4C[C@H](Oc5ccccc5)C[C@@]4(O)C3)ccc2N1 (single isomer, unassigned) [Example 7B] | 15200 | – | –
1.11 | 0.41 | – | O=C1CCc2cc([C@@H](O)CN3C[C@H]4C[C@H](Oc5ccccc5)C[C@@]4(O)C3)c(F)cc2N1 (single isomer, unassigned) [Example 10A] | 2100 | – | –
3.32 | 0.83 | – | O=C1Nc2ccc([C@@H](O)CN3C[C@H]4C[C@H](Oc5ccccc5)C[C@@]4(O)C3)cc2CO1 (single isomer, unassigned) [Example 28A] | 2400 | – | –
1.11 | 0.013 | – | O=c1[nH]c2ccc([C@@H](O)CN3C[C@H]4C[C@H](Oc5ccccc5)C[C@@]4(O)C3)cc2s1 (single isomer, unassigned) [Example 17A] | 200 | – | –
0.75 | 0.08 | – | O=C1Nc2c(F)cc([C@H](O)CN3C[C@H]4C[C@H](Oc5ccccc5)C[C@@]4(O)C3)cc2CS1 (single isomer, unassigned) [Example 16B] | 200 | – | –
7.34 | 1190 | – | O[C@H](CN1C[C@H]2C[C@H](Oc3ccccc3F)[C@H](O)[C@@]2(O)C1)c1cnc2[nH]ccc2c1 (single isomer, unassigned) [Example 44B] | 15700 | – | –
– | 0.012 | – | O=c1[nH]c2ccc([C@H](O)CN3C[C@H]4C[C@H](Oc5ccccc5F)C[C@@]4(O)C3)cc2s1 (single isomer, unassigned) [Example 18B] | 1200 | – | –
0.93 | 0.19 | – | O=c1[nH]c2c(F)cc([C@@H](O)CN3C[C@H]4C[C@H](Oc5ccccc5)C[C@@]4(O)C3)cc2s1 (single isomer, unassigned) [Example 42A] | 2200 | – | –
4.04 | 0.49 | – | O=C1Nc2cc(F)c([C@@H](O)CN3C[C@H]4C[C@H](Oc5ccccc5)C[C@@]4(O)C3)cc2CO1 (single isomer, unassigned) [Example 36A] | 5500 | – | –
1.87 | 4.9 | – | O=C1Nc2c(F)cc([C@@H](O)CN3C[C@H]4C[C@H](Oc5ccccc5)C[C@@]4(O)C3)cc2CO1 (single isomer, unassigned) [Example 33A] | 8200 | – | –
2.3 | 1.6 | – | O=C1CCc2cc([C@H](O)CN3C[C@H]4C[C@H](Oc5ccccc5)C[C@@]4(O)C3)ccc2N1 [Example 1B, 6-((S)-1-hydroxy-2-((3aS,5S,6aR)-3a-hydroxy-5-phenoxyhexahydrocyclopenta[c]pyrrol-2(1H)-yl)ethyl)-3,4-dihydroquinolin-2(1H)-one] | 7600 | – | –
– | – | – | O=C1CCc2cc(C(O)CN3C[C@H]4C[C@H](Oc5ccccc5F)C[C@H]4C3)ccc2N1 (mixture of isomers) [Mixture of two isomers at benzylic position, reference compound] | – | 500 | –
– | 0.61 | more potent than Examples 5A and 5B | O=C1CCc2cc(C(O)CN3C[C@H]4C[C@H](Oc5ccccc5F)C[C@@]4(O)C3)ccc2N1 (single isomer, unassigned) [Example 5D] | 5900 | 5900 | 1.93
0.91 | 3.6 | – | O=C1Nc2c(F)cc([C@H](O)CN3C[C@H]4C[C@H](Oc5ccccc5)C[C@@]4(O)C3)cc2CO1 (single isomer, unassigned) [Example 33B] | 4900 | – | –

Structure (SMILES) | efflux ratio at 120 min, 10 μM [1] | IC50 [3] [nM] | relative potency in the NR2B rat cortical neuron calcium influx assay [3] | IC50 [2, 4] [nM] | IC50 ([2]; Table 3, matched pairs) [nM] | MDCK-MDR1 ER [1]
O[C@@H](CN1C[C@H]2C[C@H](Oc3ccc(F)cc3F)C[C@@]2(O)C1)c1ccc2[nH]ncc2c1 [Example 21] | – | 11 | – | 3600 | – | 1.94
